# From patent US11944701B2, “Protection of materials by sphingosine based compounds” (STICHTING VU, priority 2012, dated 2024)
# Where two headings read alike, the source gives them in different places.
# Columns and labels:
# [1] = Erosion test: weight loss of HAP disks after exposure to citric acid; conditions: for protection of HAP: 100 μg/ml in Tris-Tween, 3 hrs
# Protocol: Dental enamel consists largely of hydroxyapatite crystals (Ca10(PO4)6(OH)2. Sintered at high temperatures, hydroxyapatite discs can be produced with physical characteristics (e.g. hardness and density) resembling those of enamel (Anderson et al, 2004), which can be used to determine erosive properties of solutions (Jensdottir et al, 2005) by measuring weight loss from hydroxyapatite after immersion in an erosive (acidic) solution.
# Hydroxyapatite discs, sintered at 1250° C. and with a relative density of 98% were obtained from Swerea, Stockholm, Sweden. The lateral and bottom surfaces of the discs were covered with nail polish so that one side remained uncoated. Next, discs were cleaned by sanding with sand paper (3M734 P600) rinsed with demineralised water, dried at 37° C. overnight and weighed to determine the initial mass. Hydroxyapatite discs were placed in the wells of 12 well cell culture plates (Greiner bio-one, Frickenhausen, Germany), to which was added 1.5 ml of phytosphingosine (PHS in various concentrations dissolved in saliva buffer (2 mM potassium phosphate, 50 mM KCl, 1 mM CaCl2, 0.1 mM MgCl2, pH 6.8) under gently shaking for 3 hours at 37° C. After three times rinsing with 4 ml saliva buffer to remove unbound PHS, discs were placed in new wells with 4 ml of 0.1 M citric acid (pH=3.0). After 30 minutes citric acid was pipetted off and discs were rinsed 3 times with 4 ml demineralized water, dried overnight at 37° C. and weighted. The difference in weight before and after the erosive treatment was taken as a measure for erosion. The experiments were conducted in triplicate and were repeated at least two times. Formation of saliva pellicle on HAP discs was achieved as follows: saliva was collected without conscious stimulation, as described previously (Navazesh, 1993). Saliva was cleared from cellular debris by centrifugation at 10,000 g for 10 minutes. The supernatant (HWS) was collected and used for coating HAP disks with a salivary pellicle. For this purpose, HAP disks were incubated with 4 ml HWS at 37° C. After 3 hrs, disks were rinsed 3 times with distilled water to remove unbound protein. Subsequently, the protective effect of PHS on saliva-coated HAP was tested as described above for bare HAP.
# Protection of HAP against erosion was determined essentially as described by Jensdottir et al, (2005), by measuring weight loss from HAP disks before and after immersion in an erosive (acidic) solution using a Sartorius GD503 analytical precision scale. For the erosion experiments, the lateral and bottom surfaces of the disks were covered with nail polish leaving the circular upper surface uncoated. Next, disks were cleaned by sanding with fine sand paper (3M734 P600), rinsed with demineralised water, dried at 37° C. overnight and weighed to determine the initial mass. Stock solutions of lipids were prepared in ethanol to a concentration of 5 mg/ml. These stock solutions were diluted further to the desired concentration in the working buffer. Working solutions of PHS were prepared in saliva buffer (2 mM potassium phosphate, 50 mM KCl, 1 mM CaCl2, 0.1 mM MgCl2, pH 6.8) or in 20 mM Tris (pH 6.8) supplemented with 0.1% Tween 20 (Tris-Tween). HAP disks were placed in the wells of 12 well cell culture plates (Greiner bio-one, Frickenhausen, Germany), to which 1.5 ml of the lipid solutions was added and incubated under gentle shaking for 3 hours at 37° C. After three times rinsing with 4 ml of the incubation buffer to remove unbound lipid, disks were incubated with 4 ml of 0.1 M citric acid (pH=3.0). […] The difference in weight before and after the erosive treatment was taken as a measure for erosion. All incubations were conducted in triplicate and each experiment was repeated at least two times.
# Streptococcus gordonii = assay: Antifouling activity of sphingolipids coated on HA discs; format: cell-based; conditions: HA discs coated with 100 μg/ml lipid; 2 hr with bacteria
# Protocol: (§1) Six different sphingolipids including PHS, PHS phosphate, Sphingosine, Sphinganine, Stearoyl PHS and Sphingomyelin were tested for their antifouling properties against two primary colonizers i.e.—Streptococcus sanguinis and Streptococcus gordonii and a late colonizer, Streptococcus mutans.
# (§2) HA discs were incubated 0/N with 100 μg/ml lipid at 37° C. Subsequently, the discs were washed to remove unbound lipid. Then the lipid-coated HA discs were incubated for 2 hr with 1.5 ml of ˜10^7 cells/ml. After washing, the adherent bacterial cells were desorbed by sonication and transferred to agar plates. After 48 hr CFUs were counted.
# Streptococcus mutans = assay: as above; format: cell-based; conditions: HA discs coated with 100 μg/ml lipid; 2 hr with bacteria
# Protocol: as §1, §2
# Streptococcus sanguinis = assay: as above; format: cell-based; conditions: HA discs coated with 100 μg/ml lipid; 2 hr with bacteria
# Protocol: as §1, §2
# Solubility of PHS = format: physicochemical
# [2] = PHS adsorption to HAP (OPA fluorimetry)
# Protocol: PHS was dissolved in concentrations ranging from 0 to 500 μg/ml in 20 mM Tris buffer supplemented with 0.1% Tween 20 (pH 6.8) (Tris-Tween). Tween 20 was added to keep PHS in solution. Disks were incubated with the PHS solutions for 18 h, and then rinsed with demin water (3 times) to remove unbound PHS. HAP bound PHS was extracted by incubation with 1.5 ml methanol for 90 minutes. Since nail polish dissolved in methanol, in the binding experiments HAP disks were used without nail polish. It was verified that no PHS was adsorbed to the plastic, by conducting control incubations without disks. After evaporation, the residue was dissolved in 250 μl of methanol. To 100 of this solution 25 μl ortho-phtaldialdehyde reagent (OPA, Sigma-Aldrich) to enable fluorimetric quantification of bound PHS. Fluorescence was measured on a Fluostar microplate reader at excitation/emission wavelengths of 380 nm/450 nm. Absolute quantities were determined by reference to a standard curve of PHS. All incubations were conducted in triplicate and the experiment was repeated two times.
# [3] = in saliva buffer; cited from earlier work
compound,measurement,setting,value
Di-myroistyl phosphatidylcholine [reference compound],protection of HAP,[1]; 0.1 M citric acid 30 minutes,did not protect HAP
"CCCCCCCCCCCCCCC(O)[C@@H](O)[C@@H](N)COP(=O)(O)O (stereo partly drawn) [PHS phosphate, 4-hydroxysphinganine-1-phosphate]",reduction in bacterial adherence,Streptococcus gordonii,1.5 log values
same,antifouling activity (reduction of adherent bacteria),Streptococcus mutans,~2 log CFU/ml
same,protection of HAP,[1]; 0.1 M citric acid 30 minutes,protection that was comparable to that by PHS
"CCCCCCCCCCCCCCCCCC(=O)N[C@@H](CO)[C@H](O)C(O)CCCCCCCCCCCCCC (stereo partly drawn) [Stearoyl PHS, N-stearoyl 4-4-hydroxysphinganine]",antifouling activity (reduction of adherent bacteria),Streptococcus mutans,~2 log CFU/ml
sphingomyelin [reference compound],reduction in bacterial adherence,Streptococcus sanguinis,1 log value
same,protection of HAP,[1]; 0.1 M citric acid 30 minutes,did not protect HAP
4-hydroxysphinganine-1-phosphate [PHS phosphate],protection against subsequent erosive attack by citric acid,[1]; 200 μg/ml in saliva buffer,did not afford protection
CCCCCCCCCCCCC/C=C/[C@@H](O)[C@@H](N)CO [sphingosine],protection of HAP,[1]; 0.1 M citric acid 30 minutes,protection that was comparable to that by PHS
"CCCCCCCCCCCCCC[C@@H](O)[C@@H](O)[C@@H](N)CO [PHS, phytosphingosine]",solubility,"Solubility of PHS; in Tris-Tween, concentration before and after centrifugation 10 minutes 10,000 g",completely soluble
same,solubility,Solubility of PHS; in water,moderately soluble
same,PHS adsorbed onto the surface of the disk,"[2]; at maximal adsorption (60 μg/ml and higher), Tris-Tween",approximately 12 μg
same,time to equilibrium of the initial fast phase of binding,"[2]; biphasic time course, gradual increase over the next 15 hrs",≤ 1 h
same,PHS concentration at which maximal adsorption occurred,[2]; in Tris-Tween,≥ 60 µg/mL
same,adsorption to saliva-incubated HAP disks compared to control,"[2]; overnight incubation with saliva, then PHS, control saliva buffer",even higher amounts of PHS adsorbed
same,share of the maximal adsorption level reached,[2]; within 5 minutes,> 65%
same,amount adsorbed,"[2]; within one minute, fixed PHS concentration",substantial amount
same,effect on the pH of citric acid,[1],no effect
same,protection when present in the erosive fluid,"[1]; 0.1 M citric acid in the presence of 100 ug/ml PHS, 30 minutes, untreated HAP disks",protects against erosion even with untreated HAP disks
same,duration of the protective effect,"[1]; 1 hour exposure to citric acid, 50 μg/ml PHS (FIG. 3)",still protected
same,protection of disks covered with a salivary pellicle (CHWS) versus controls,"[1]; 20 hrs CHWS, then 100 μg/ml PHS in TrisT 3 hrs, 0.1 M citric acid 30 minutes",protected to the same extent
same,protection against dissolution by citric acid relative to the control disks,"[1]; HAP discs pretreated, then 0.1 M citric acid (pH=3) for 30 minutes",more than 80%
same,PHS concentration at which virtually maximal protection was achieved,"[1]; HAP disks incubated 3 hrs with PHS, citric acid 30 minutes",> 20 µg/mL
same,protection of saliva-coated HAP versus uncoated HAP,[1]; HAP disks preincubated with human saliva (salivary pellicle),to the same extent
same,protection at 500 and 50 μg/ml,[1]; PHS 500 and 50 μg/ml,comparable protection
same,protection at 5 ug/ml,[1]; PHS concentration lowered to 5 ug/ml,steep decrease in protection
same,protection with PHS dissolved in Tris-Tween compared with saliva buffer,[1]; PHS dissolved in Tris-Tween,essentially the same protection
same,less weight loss compared to the untreated control disks,"[1]; PHS in saliva buffer, subsequent erosive challenge 0.1 M citric acid (pH=3) 30 minutes",70-80%
same,protection by pre-treatment,"[1]; pretreated 100 ug/ml 3 hours, 0.1 M citric acid (pH=3.0) 30 minutes",protects against the erosive effects of citric acid
same,effect of solvent used for stock solution on protection,"[1]; stock 5 mg/ml in DMSO or ethanol, with or without sonication, 3 hr incubation",No difference
same,binding level at which protection is maximal,"[1]; submaximal binding, 0.1 M citric acid (pH 3.0) 30 minutes",approximately 6 μg per disk
same,solubility,[3],poorly soluble
CCCCCCCCCCCCCCC[C@@H](O)[C@@H](N)CO [Sphinganine],reduction in bacterial adherence,Streptococcus sanguinis,2 log value
same,reduction in bacterial adherence,Streptococcus gordonii,1.5 log values
same,reduction of adherent bacteria,Streptococcus mutans,3 log
same,protection of HAP,[1]; 0.1 M citric acid 30 minutes,protection that was comparable to that by PHS
same,effect of phosphate in the buffer on efficacy,[1]; FIG. 8,"more effective when provided in a buffer not containing, or containing a minimal amount of, phosphate"
same,protection against citric acid,[1]; used in a Tris buffer (FIG. 8),protected against citric acid
same,protection against citric acid,[1]; used in a buffer containing phosphate ions,not when used in a buffer containing phosphate ions
